Common to all, as to format: biochemical
One assay addresses T1, JAK3 (Homo sapiens, UniProt P52333).
T1 sequence (P52333 1-1124): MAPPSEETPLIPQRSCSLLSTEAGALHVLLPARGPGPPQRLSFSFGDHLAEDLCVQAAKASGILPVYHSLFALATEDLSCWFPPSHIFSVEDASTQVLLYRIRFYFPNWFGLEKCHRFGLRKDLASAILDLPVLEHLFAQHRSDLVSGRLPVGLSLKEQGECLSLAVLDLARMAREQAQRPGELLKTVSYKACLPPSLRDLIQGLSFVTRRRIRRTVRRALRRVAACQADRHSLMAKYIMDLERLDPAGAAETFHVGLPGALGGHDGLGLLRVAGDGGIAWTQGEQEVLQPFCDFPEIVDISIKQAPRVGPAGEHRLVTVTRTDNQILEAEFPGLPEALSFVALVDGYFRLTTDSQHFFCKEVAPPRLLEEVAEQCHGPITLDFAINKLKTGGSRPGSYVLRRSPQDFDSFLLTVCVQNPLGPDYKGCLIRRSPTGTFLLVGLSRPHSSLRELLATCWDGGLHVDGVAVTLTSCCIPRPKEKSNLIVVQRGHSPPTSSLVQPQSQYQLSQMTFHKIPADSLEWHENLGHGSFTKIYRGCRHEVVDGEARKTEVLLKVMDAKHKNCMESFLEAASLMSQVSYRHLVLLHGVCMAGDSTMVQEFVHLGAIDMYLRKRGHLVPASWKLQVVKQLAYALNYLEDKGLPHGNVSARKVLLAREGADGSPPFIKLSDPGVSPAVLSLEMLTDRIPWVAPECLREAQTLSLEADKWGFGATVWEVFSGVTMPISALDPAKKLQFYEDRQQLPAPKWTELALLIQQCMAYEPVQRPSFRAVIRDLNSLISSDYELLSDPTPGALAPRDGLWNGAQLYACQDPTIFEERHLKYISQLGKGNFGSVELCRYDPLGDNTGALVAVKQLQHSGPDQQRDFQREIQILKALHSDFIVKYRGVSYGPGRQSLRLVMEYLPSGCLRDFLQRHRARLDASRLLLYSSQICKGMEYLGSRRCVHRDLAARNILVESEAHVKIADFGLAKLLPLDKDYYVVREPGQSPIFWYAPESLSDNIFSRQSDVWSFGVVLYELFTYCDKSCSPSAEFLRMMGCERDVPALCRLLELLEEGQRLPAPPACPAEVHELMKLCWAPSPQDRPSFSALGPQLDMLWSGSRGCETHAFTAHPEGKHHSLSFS
As to the kind of experiment: Inhibition of a panel of kinases, in vitro HotSpot kinase assay: JAK3. As for the experimental part:
(§1) The degree of inhibition of a panel of kinases is determined using the in vitro HotSpot kinase assay (purified enzymes, ^33P-ATP, an appropriate substrate and 1 uM ATP).

A further assay has as its target Btk (Homo sapiens, UniProt Q06187). As to the kind of experiment: Btk kinase activity, TR-FRET assay. As to conditions: read-out: Btk (IC50). A digest of the protocol: (§2)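 Enzyme (Btk 0.5 nM; Lck 6 nM) reacted 1 h with inhibitor, ATP at Km and biotin-peptide substrate in pH 7.4 buffer, 10% DMSO. Phosphopeptide detected by Eu-p-Tyr100 antibody plus streptavidin-APC (665/615 nm). IC50 calculated from fitted Ki(app) via ATP/Km correction plus half total enzyme.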
For orientation: In TR-FRET formats the signal depends on donor and acceptor labels being close together.

For another assay, the target named is Lck (Homo sapiens, UniProt P06239). Description: Lck kinase activity, TR-FRET assay. As to conditions: read-out: LCK (IC50). The procedure, abridged:
as §2

For the next assay, the target named is EGFR (Homo sapiens, UniProt P00533). Description: Inhibition of a panel of kinases, in vitro HotSpot kinase assay: EGFR. As for the experimental part:
as §1

Some results are limits rather than exact numbers.

Btk, sequence (Q06187 whole entry): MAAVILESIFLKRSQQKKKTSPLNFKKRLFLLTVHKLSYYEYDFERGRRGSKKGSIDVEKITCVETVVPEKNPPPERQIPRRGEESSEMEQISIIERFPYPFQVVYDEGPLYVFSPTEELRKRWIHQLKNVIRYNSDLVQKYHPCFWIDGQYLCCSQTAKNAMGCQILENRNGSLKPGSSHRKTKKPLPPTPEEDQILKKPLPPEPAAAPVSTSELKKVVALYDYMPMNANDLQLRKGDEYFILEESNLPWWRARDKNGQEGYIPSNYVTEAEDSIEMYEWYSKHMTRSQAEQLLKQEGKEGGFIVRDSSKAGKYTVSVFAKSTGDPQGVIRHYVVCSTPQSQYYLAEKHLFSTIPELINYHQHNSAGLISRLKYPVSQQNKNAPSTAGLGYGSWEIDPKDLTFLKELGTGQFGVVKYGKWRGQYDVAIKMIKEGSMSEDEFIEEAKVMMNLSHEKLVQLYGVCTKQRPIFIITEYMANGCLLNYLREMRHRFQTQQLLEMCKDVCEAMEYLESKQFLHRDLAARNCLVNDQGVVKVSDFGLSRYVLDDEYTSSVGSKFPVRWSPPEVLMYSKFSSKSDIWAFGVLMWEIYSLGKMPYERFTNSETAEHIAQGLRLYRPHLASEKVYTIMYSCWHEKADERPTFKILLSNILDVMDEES
Lck, sequence (P06239 whole entry, species assumed): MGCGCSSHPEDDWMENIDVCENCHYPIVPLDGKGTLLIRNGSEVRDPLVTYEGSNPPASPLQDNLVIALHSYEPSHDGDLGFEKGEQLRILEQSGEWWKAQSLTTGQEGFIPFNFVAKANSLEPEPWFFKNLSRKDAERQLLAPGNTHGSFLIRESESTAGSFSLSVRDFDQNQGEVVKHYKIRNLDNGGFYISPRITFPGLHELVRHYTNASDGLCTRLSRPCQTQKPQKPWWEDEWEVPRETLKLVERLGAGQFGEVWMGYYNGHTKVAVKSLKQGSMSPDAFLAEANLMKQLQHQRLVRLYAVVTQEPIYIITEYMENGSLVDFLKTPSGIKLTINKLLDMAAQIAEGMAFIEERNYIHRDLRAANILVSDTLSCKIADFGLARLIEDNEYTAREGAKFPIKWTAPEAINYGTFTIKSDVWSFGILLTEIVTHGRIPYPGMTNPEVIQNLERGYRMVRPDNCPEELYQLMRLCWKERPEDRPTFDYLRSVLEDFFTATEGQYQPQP
EGFR, sequence (P00533 25-1210): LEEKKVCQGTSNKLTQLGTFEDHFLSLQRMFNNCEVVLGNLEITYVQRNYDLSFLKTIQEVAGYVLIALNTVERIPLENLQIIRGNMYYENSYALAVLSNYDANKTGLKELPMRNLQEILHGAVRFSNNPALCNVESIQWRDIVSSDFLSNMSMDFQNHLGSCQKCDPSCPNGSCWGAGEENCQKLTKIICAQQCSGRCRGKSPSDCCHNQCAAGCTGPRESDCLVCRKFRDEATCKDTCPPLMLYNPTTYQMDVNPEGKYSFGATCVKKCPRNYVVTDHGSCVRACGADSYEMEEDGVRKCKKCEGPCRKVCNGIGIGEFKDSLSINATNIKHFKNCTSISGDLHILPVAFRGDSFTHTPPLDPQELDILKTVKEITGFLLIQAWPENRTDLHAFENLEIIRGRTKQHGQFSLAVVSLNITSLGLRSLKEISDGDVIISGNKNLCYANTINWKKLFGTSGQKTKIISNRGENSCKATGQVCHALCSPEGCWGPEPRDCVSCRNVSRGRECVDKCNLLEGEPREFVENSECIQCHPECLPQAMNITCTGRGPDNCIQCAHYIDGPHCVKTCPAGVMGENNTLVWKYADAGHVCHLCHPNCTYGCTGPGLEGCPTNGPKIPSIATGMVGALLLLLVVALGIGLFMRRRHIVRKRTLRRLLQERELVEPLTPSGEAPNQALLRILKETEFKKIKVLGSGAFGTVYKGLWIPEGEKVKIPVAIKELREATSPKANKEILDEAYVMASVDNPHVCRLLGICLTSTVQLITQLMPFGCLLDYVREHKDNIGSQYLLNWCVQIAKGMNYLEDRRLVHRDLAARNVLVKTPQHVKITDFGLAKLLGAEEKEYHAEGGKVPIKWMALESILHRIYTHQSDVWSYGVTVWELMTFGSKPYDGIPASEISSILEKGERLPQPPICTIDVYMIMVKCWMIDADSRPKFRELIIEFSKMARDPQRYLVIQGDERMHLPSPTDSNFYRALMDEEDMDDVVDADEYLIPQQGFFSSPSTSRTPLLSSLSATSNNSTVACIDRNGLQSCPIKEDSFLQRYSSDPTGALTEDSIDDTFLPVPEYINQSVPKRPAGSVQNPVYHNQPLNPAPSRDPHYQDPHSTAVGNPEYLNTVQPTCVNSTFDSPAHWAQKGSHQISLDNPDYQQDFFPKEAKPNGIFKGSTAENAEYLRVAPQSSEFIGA

Usually IC50 stands for the point on the concentration scale where inhibition reaches its midpoint. For `O=C(Nc1cc(C(F)(F)F)ccn1)c1ccc(Oc2ccnc3[nH]nc(N[C@@H]4CCCN(C(=O)C5CC5)C4)c23)cc1` [compound 173], the IC50 is more than 10000 nM against JAK3, less than 100 nM at Btk, 100 to 1000 nM on Lck and 1000 to 10000 nM at EGFR.
The like results for `C=CC(=O)N1CCC[C@@H](Nc2n[nH]c3nccc(Oc4ccc(C(=O)Nc5ncc(CC)s5)cc4)c23)C1` [compound 179] were, in that order, less than 100 nM, less than 100 nM, 100 to 1000 nM and less than 100 nM.
`C=CC(=O)N1CCC[C@@H](Nc2n[nH]c3nccc(Oc4cccc(C(=O)Nc5ncc(C)s5)c4)c23)C1` [compound 149]: the IC50 was less than 100 nM on JAK3, less than 100 nM on Btk, 1000 to 10000 nM at Lck and less than 100 nM against EGFR.
Turning to `Cc1ccnc(NC(=O)c2ccc(Oc3ccnc4[nH]nc(N[C@@H]5CCCN(C(=O)[C@@H]6CCOC6)C5)c34)cc2)c1` [compound 115, N-(4-methylpyridin-2-yl)-4-[(3-{[(3R)-1-[(3R)-oxolane-3-carbonyl]piperidin-3-yl]amino}-1H-pyrazolo[3,4-b]pyridin-4-yl)oxy]benzamide], the IC50 is more than 10000 nM against JAK3, less than 100 nM at Btk, 100 to 1000 nM at Lck and more than 10000 nM against EGFR.
In the case of `Cc1ccnc(NC(=O)c2ccc(Oc3ccnc4[nH]nc(N[C@@H]5CCCN(C(=O)c6ccccn6)C5)c34)cc2)c1` [compound 110, N-(4-methylpyridin-2-yl)-4-[(3-{[(3R)-1-(pyridine-2-carbonyl)piperidin-3-yl]amino}-1H-pyrazolo[3,4-b]pyridin-4-yl)oxy]benzamide], the IC50 is more than 10000 nM at JAK3, less than 100 nM on Btk, 1000 to 10000 nM at Lck and more than 10000 nM on EGFR.
`CCNC(=O)N1CCC[C@@H](Nc2n[nH]c3nccc(Oc4ccc(C(=O)Nc5cc(C(F)(F)F)ccn5)cc4)c23)C1` [compound 207, (3R)-N-ethyl-3-{[4-(4-{[4-(trifluoromethyl)pyridin-2-yl]carbamoyl}phenoxy)-1H-pyrazolo[3,4-b]pyridin-3-yl]amino}piperidine-1-carboxamide]: the IC50 was more than 10000 nM on JAK3, less than 100 nM on Btk, 100 to 1000 nM on Lck and 1000 to 10000 nM on EGFR.
The corresponding values for `C=CC(=O)N1CCC[C@@H](Nc2n[nH]c3nccc(Oc4ccc(-c5ncc(C)s5)cc4)c23)C1` [compound 158] are 1000 to 10000 nM, less than 100 nM, 1000 to 10000 nM and 100 to 1000 nM.
For `C=CC(=O)N1CC[C@H](Nc2n[nH]c3nccc(Oc4cccc(C(=O)Nc5ccc(C(C)C)c(C)c5)c4)c23)C1` [compound 126, N-[3-methyl-4-(propan-2-yl)phenyl]-3-[(3-{[(3S)-1-(prop-2-enoyl)pyrrolidin-3-yl]amino}-1H-pyrazolo[3,4-b]pyridin-4-yl)oxy]benzamide], the half-inhibitory concentration (IC50) against JAK3 is 100 to 1000 nM; at Btk it was 100 to 1000 nM; on Lck it was less than 100 nM; on EGFR, 1000 to 10000 nM.
In the case of `CCOC(=O)N1CCC[C@@H](Nc2n[nH]c3nccc(Oc4ccc(C(=O)Nc5cc(C)ccn5)cc4)c23)C1` [compound 108, ethyl (3R)-3-[(4-{4-[(4-methylpyridin-2-yl)carbamoyl]phenoxy}-1H-pyrazolo[3,4-b]pyridin-3-yl)amino]piperidine-1-carboxalate], the IC50 against JAK3 was more than 10000 nM; on Btk it was less than 100 nM; at Lck it was 100 to 1000 nM; on EGFR, 1000 to 10000 nM.
The corresponding values for `CNC(=O)C(=O)N1CCC[C@@H](Nc2n[nH]c3nccc(Oc4ccc(C(=O)Nc5cc(C)ccn5)cc4)c23)C1` [compound 97, 4-[(3-{[(3R)-1-[(methylcarbamoyl)carbonyl]piperidin-3-yl]amino}-1H-pyrazolo[3,4-b]pyridin-4-yl)oxy]-N-(4-methylpyridin-2-yl)benzamide] are more than 10000 nM, less than 100 nM, 100 to 1000 nM and 1000 to 10000 nM.
As for `Cc1cc(NC(=O)c2cccc(Oc3ccnc4[nH]nc(N[C@H]5CCN(C(=O)c6ccc(F)cc6)C5)c34)c2)ccc1C(C)C` [compound 128, 3-[(3-{[(3S)-1-(4-fluorobenzoyl)pyrrolidin-3-yl]amino}-1H-pyrazolo[3,4-b]pyridin-4-yl)oxy]-N-[3-methyl-4-(propan-2-yl)phenyl]benzamide], the IC50 against JAK3 is more than 10000 nM; on Btk, 100 to 1000 nM; at Lck, less than 100 nM; against EGFR, more than 10000 nM.
`CC#CC(=O)N1CCC[C@@H](Nc2n[nH]c3nccc(Oc4ccc(C(=O)Nc5nc(C)c(C)s5)cc4)c23)C1` [compound 175]: the IC50 was more than 10000 nM against JAK3, less than 100 nM at Btk, 100 to 1000 nM on Lck and more than 10000 nM against EGFR.
As to `Cc1csc(NC(=O)c2ccc(Oc3ccnc4[nH]nc(N[C@@H]5CCCN(C(=O)/C=C/CN(C)C6CC6)C5)c34)cc2)n1` [compound 139], the IC50 is 1000 to 10000 nM against JAK3, 100 to 1000 nM on Btk, more than 10000 nM on Lck and 1000 to 10000 nM on EGFR.
`Cc1ccnc(NC(=O)c2ccc(Oc3ccnc4[nH]nc(N[C@@H]5CCCN(C(=O)C6(C)CCN(C)CC6)C5)c34)cc2)c1` [compound 283, (R)-4-(3-(1-(1,4-dimethylpiperidine-4-carbonyl)piperidin-3-ylamino)-1H-pyrazolo[3,4-b]pyridin-4-yloxy)-N-(4-methylpyridin-2-yl)benzamide]: the IC50 is more than 10000 nM against JAK3, less than 100 nM at Btk, 100 to 1000 nM at Lck and more than 10000 nM on EGFR.
On to `CC#CC(=O)N1CCC[C@@H](Nc2n[nH]c3nccc(Oc4ccc(C(=O)Nc5cc(C)n(C)n5)cc4)c23)C1` [compound 185], for which the IC50 at JAK3 is more than 10000 nM; on Btk, 100 to 1000 nM; on Lck, more than 10000 nM; against EGFR, more than 10000 nM.
Regarding `C=CC(=O)N1CCC[C@@H](Nc2n[nH]c3nccc(Oc4ccc(Oc5ccccc5)c(C)c4)c23)C1` [compound 153], the IC50 against JAK3 was 100 to 1000 nM; at Btk, less than 100 nM; at Lck, 100 to 1000 nM; against EGFR, less than 100 nM.
Take `Cc1cnc(NC(=O)c2ccc(Oc3ccnc4[nH]nc(N[C@@H]5CCN(C(=O)CCCN(C)C)C5)c34)cc2)s1` [compound 202, 4-[(3-{[(3R)-1-[4-(dimethylamino)butanoyl]pyrrolidin-3-yl]amino}-1H-pyrazolo[3,4-b]pyridin-4-yl)oxy]-N-(5-methyl-1,3-thiazol-2-yl)benzamide]: the IC50 against JAK3 was more than 10000 nM; at Btk, less than 100 nM; on Lck, 1000 to 10000 nM; against EGFR, more than 10000 nM.
Consider `C=CC(=O)N1CCC[C@@H](Nc2n[nH]c3nccc(O[C@H]4CC[C@H](C(=O)Nc5ncc(C)s5)CC4)c23)C1` [compound 144], for which the IC50 against JAK3 was 100 to 1000 nM; on Btk, 100 to 1000 nM; on Lck, more than 10000 nM; at EGFR, 1000 to 10000 nM.
As to `CCC(=O)N1CCC[C@@H](Nc2n[nH]c3nccc(Oc4ccc(-c5nc6cccc(C)c6o5)cc4)c23)C1` [compound 219, 1-[(3R)-3-({4-[4-(7-methyl-1,3-benzoxazol-2-yl)phenoxy]-1H-pyrazolo[3,4-b]pyridin-3-yl}amino)piperidin-1-yl]propan-1-one], the IC50 on JAK3, at Btk, on Lck and on EGFR was more than 10000 nM each time.
Take `Cc1ccnc(NC(=O)c2ccc(Oc3ccnc4[nH]nc(N[C@@H]5CCN(C#N)C5)c34)cc2)c1` [compound 275, (R)-4-(3-(1-cyanopyrrolidin-3-ylamino)-1H-pyrazolo[3,4-b]pyridin-4-yloxy)-N-(4-methylpyridin-2-yl)benzamide]: the IC50 is more than 10000 nM on JAK3, less than 100 nM on Btk, 100 to 1000 nM on Lck and 1000 to 10000 nM on EGFR.

(Values after patent US9580416B2, “Inhibitors of Bruton's tyrosine kinase” (PHARMACYCLICS LLC, priority 2014, dated 2017).)
